Measured values published in ChEMBL document CHEMBL6074641, “Polypharmacological Drug Design Guided by Integrating Phenotypic and Restricted Fragment Docking Strategies” (J Med Chem, 2024).
Calls of active or inactive are those of the source. The rule behind the calls is not given here.

Experiments:
[1] = system: BV-2; experiment: Anti-necroptosis activity in LPS/zVAD stimulated mouse BV-2 cells at 10 uM preincubated with LPS for 11 hrs followed by compound addition for 1 hr and exposed to zVAD-fmk for another 24 hrs by Cellcounting-Lite 2.0 luminescent cell viability assay; type: functional, cell-based; details: time 25.0 hrs
[2] = system: BV-2; experiment: (§1) Synergistic anti-necroptosis activity in LPS/zVAD stimulated mouse BV-2 cells preincubated with LPS for 11 hrs followed by compound addition for 1 hr and exposed to zVAD-fmk for another 24 hrs in presence of Nec-1 by Cellcounting-Lite 2.0 luminescent cell viability assay; type: functional, cell-based; details: time 25.0 hrs
[3] = system: BV-2; experiment: (§2) Synergistic anti-necroptosis activity in LPS/zVAD stimulated mouse BV-2 cells preincubated with LPS for 11 hrs followed by compound addition for 1 hr and exposed to zVAD-fmk for another 24 hrs in presence of crizotinib by Cellcounting-Lite 2.0 luminescent cell viability assay; type: functional, cell-based; details: time 25.0 hrs
[4] = biological target: T1, Receptor-interacting serine/threonine-protein kinase 1 (Homo sapiens) (UniProt Q13546); experiment: (§3) Inhibition of recombinant RIPK1 (1 to 327 residues) (unknown origin) expressed in Escherichia coli BL21([…]) using MBP as substrate preincubated for 15 mins followed by substrate and ATP addition and measured after 90 mins by ADP-Glo luminescence […] assay; details: time 105.0 min
T1 sequence (whole entry): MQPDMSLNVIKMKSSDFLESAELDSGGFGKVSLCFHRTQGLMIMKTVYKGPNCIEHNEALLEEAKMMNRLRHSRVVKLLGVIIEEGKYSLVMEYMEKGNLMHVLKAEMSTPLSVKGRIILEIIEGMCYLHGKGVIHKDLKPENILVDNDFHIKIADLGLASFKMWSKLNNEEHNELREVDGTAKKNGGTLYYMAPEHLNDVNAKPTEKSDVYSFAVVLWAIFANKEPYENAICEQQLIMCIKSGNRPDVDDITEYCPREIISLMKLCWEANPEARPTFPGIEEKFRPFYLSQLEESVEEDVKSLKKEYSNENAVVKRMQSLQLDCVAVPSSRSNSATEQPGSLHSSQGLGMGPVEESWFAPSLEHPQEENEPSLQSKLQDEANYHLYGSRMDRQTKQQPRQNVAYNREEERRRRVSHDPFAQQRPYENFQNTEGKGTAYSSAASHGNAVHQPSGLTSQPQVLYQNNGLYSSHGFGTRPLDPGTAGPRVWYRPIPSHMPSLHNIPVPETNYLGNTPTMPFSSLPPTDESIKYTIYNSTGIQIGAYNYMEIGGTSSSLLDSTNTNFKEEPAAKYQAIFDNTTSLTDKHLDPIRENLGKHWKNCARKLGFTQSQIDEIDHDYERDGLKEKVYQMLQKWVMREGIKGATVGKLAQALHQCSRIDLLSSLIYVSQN

[5] = system: BV-2; experiment: Anti-necroptosis activity in LPS/zVAD stimulated mouse BV-2 cells preincubated with LPS for 11 hrs followed by compound addition for 1 hr and exposed to zVAD-fmk for another 24 hrs by Cellcounting-Lite 2.0 luminescent cell viability assay; details: time 25.0 hrs
[6] = biological target: T2, Receptor-interacting serine/threonine-protein kinase 1 (Homo sapiens, UniProt Q13546); experiment: as §3
T2 sequence (Q13546 whole entry): T1 sequence (whole entry)

[7] = biological target: Mitogen-activated protein kinase kinase kinase kinase 4 (Homo sapiens, UniProt O95819); experiment: Inhibition of recombinant MAP4K4 (1 to 328 residues) (unknown origin) expressed in Escherichia coli BL21([…]) using MBP as substrate preincubated for 15 mins followed by substrate and ATP addition and measured after 90 mins by ADP-Glo luminescence […] assay
Sequence of Mitogen-activated protein kinase kinase kinase kinase 4 (O95819 whole entry, the tested form may be a part): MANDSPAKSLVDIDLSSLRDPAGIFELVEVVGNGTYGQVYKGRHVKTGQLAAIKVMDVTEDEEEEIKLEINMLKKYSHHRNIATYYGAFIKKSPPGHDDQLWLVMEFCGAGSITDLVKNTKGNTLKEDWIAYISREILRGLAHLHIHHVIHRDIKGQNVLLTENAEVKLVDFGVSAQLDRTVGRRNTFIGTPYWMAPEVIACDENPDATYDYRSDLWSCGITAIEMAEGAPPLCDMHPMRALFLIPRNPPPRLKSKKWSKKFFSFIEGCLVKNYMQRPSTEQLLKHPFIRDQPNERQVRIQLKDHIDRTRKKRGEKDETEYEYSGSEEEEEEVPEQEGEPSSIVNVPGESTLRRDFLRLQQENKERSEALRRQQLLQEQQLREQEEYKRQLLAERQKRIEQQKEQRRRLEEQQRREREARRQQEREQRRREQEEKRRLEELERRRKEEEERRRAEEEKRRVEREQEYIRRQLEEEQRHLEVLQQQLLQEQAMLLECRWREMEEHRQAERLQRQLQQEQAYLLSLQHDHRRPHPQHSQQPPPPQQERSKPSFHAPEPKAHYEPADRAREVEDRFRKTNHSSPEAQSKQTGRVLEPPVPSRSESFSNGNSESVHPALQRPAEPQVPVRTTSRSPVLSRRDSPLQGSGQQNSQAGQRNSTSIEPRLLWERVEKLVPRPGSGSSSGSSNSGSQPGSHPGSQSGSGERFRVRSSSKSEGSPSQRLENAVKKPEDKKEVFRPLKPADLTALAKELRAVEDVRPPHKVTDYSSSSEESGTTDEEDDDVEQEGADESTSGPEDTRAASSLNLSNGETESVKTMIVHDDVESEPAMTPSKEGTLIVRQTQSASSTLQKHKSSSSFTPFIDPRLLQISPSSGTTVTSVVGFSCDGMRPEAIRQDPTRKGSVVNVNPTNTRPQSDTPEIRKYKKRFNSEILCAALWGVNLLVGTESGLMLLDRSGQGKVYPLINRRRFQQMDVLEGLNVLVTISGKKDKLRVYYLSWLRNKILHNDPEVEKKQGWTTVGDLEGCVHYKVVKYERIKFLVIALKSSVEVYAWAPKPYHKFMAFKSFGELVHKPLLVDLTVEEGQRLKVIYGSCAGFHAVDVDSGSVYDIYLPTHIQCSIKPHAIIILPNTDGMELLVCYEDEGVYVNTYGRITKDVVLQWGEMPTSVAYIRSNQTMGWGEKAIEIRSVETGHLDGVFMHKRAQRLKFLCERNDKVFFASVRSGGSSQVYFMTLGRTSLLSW

[8] = biological target: ALK tyrosine kinase receptor (Homo sapiens, UniProt Q9UM73); experiment: Inhibition of recombinant ALK (1060 to end residues) (unknown origin) expressed in Escherichia coli […] using IGF1Rtide as substrate preincubated for 15 mins followed by substrate and ATP addition and measured after 90 mins by ADP-Glo luminescence […] assay
Sequence of ALK tyrosine kinase receptor (Q9UM73 whole entry): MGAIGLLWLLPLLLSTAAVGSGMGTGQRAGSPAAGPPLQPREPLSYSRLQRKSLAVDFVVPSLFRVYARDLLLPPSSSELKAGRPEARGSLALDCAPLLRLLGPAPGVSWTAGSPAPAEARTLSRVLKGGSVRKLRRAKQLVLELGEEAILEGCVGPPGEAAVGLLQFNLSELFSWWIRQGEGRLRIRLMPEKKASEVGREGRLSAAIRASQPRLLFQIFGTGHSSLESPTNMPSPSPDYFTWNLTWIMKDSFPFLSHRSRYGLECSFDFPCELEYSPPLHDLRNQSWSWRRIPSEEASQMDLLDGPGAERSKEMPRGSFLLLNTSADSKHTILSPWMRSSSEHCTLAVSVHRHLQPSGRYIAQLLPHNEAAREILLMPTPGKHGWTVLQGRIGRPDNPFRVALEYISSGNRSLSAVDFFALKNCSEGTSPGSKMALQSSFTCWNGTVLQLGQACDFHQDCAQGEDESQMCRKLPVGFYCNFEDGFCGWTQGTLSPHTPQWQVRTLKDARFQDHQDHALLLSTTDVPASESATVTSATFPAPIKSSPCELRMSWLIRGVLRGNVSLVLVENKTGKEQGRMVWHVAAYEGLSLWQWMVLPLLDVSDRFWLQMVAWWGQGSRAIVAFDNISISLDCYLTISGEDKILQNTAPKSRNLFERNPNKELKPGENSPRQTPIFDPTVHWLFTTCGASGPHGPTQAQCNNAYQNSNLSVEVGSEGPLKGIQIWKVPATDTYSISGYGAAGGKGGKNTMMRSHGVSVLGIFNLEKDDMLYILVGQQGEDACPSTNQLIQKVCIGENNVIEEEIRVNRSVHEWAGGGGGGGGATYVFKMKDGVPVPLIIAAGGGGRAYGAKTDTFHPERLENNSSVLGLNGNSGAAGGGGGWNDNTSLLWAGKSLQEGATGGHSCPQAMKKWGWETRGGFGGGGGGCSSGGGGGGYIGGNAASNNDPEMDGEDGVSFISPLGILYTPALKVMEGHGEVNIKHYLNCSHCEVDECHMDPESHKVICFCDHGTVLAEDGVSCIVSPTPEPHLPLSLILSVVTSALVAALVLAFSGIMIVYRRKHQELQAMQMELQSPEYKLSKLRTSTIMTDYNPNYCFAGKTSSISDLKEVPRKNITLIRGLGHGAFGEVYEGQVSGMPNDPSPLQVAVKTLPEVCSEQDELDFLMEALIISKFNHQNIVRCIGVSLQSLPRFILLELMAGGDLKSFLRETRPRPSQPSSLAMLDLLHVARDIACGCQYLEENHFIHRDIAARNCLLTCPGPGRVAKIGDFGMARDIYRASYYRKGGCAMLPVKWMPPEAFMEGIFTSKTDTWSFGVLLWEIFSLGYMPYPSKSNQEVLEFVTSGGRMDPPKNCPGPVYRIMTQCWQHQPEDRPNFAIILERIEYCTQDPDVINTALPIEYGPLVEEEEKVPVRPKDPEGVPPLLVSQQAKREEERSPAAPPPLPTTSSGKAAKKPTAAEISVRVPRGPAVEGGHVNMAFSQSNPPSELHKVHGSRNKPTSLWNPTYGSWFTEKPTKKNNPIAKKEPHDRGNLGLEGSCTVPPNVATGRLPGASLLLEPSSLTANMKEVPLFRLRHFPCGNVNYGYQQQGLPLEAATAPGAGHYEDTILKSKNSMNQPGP

[9] = system: BV-2; experiment: cells; details: Mus musculus
[10] = system: Mus musculus; experiment: Anti-alzheimer activity against 5 month old APP/PS1 transgenic mouse model assessed as decrease in anxiety level at 10 mg/kg, po administered 4 times per week for 4 weeks; type: functional, organism-based
[11] = system: Mus musculus; experiment: Anti-alzheimer activity against 5 month old APP/PS1 transgenic mouse model assessed as decrease in restlessness at 10 mg/kg, po administered 4 times per week for 4 weeks; type: functional, organism-based
[12] = system: Mus musculus; experiment: Anti-alzheimer activity against 8 month old 3xTg mouse model assessed as decrease in anxiety level at 10 mg/kg, po administered 4 times per week for 4 weeks; type: functional, organism-based
[13] = system: Mus musculus; experiment: Anti-alzheimer activity against 8 month old 3xTg mouse model assessed as decrease in restlessness at 10 mg/kg, po administered 4 times per week for 4 weeks; type: functional, organism-based
[14] = system: BV-2; experiment: as §2, with “cells at 100 nM” for “cells”, “of PF-06260933 and” for “of”; type: functional, cell-based; details: time 25.0 hrs
[15] = system: BV-2; experiment: as §1, with “cells at 100 nM” for “cells”, “PF-06260933 and entrectinib” for “Nec-1”; type: functional, cell-based; details: time 25.0 hrs
[16] = system: BV-2; experiment: Synergistic anti-necroptosis activity in LPS/zVAD stimulated mouse BV-2 cells at 100 nM preincubated with LPS for 11 hrs followed by compound addition for 1 hr and exposed to zVAD-fmk for another 24 hrs in presence of PF-06260933 and TAE684 by Cellcounting-Lite 2.0 luminescent cell viability assay; type: functional, cell-based; details: time 25.0 hrs
[17] = system: BV-2; experiment: Synergistic anti-necroptosis activity in LPS/zVAD stimulated mouse BV-2 cells at 100 nM preincubated with LPS for 11 hrs followed by compound addition for 1 hr and exposed to zVAD-fmk for another 24 hrs in presence of PF-06260933 and LDK378 by Cellcounting-Lite 2.0 luminescent cell viability assay; type: functional, cell-based; details: time 25.0 hrs
[18] = system: BV-2; experiment: Downregulation of p-RIPK1 expression in mouse BV-2 cells at 100 nM in presence of PF-06260933 and crizotinib by Western blotting analysis; type: functional, cell-based
[19] = system: BV-2; experiment: Downregulation of p-MLKL expression in mouse BV-2 cells at 100 nM in presence of PF-06260933 and crizotinib by Western blotting analysis; type: functional, cell-based
[20] = system: BV-2; experiment: Anti-necroptosis activity in LPS/zVAD stimulated mouse BV-2 cells assessed as inhibition of extranuclear p65 at 100 nM; type: functional, cell-based
[21] = system: BV-2; experiment: Anti-necroptosis activity in LPS/zVAD stimulated mouse BV-2 cells assessed as inhibition of p65 nuclear translocation at 100 nM; type: functional, cell-based
[22] = system: BV-2; experiment: Anti-necroptosis activity in LPS/zVAD stimulated mouse BV-2 cells assessed as inhibition of p65 activation at 100 nM in presence of PF-06260933 and crizotinib; type: functional; set-up: scale not given: the % may be the effect or the level left
[23] = system: BV-2; experiment: Anti-necroptosis activity in LPS/zVAD stimulated mouse BV-2 cells assessed as inhibition of p65 nuclear translocation at 100 nM in presence of PF-06260933 and crizotinib; type: functional; set-up: scale not given: the % may be the effect or the level left
[24] = system: BV-2; experiment: Anti-inflammatory activity against LPS/zVAD treated mouse BV-2 cells assessed as decrease in TNFalpha release at 100 nM in presence of PF-06260933 and crizotinib by ELISA; type: functional, cell-based
[25] = system: BV-2; experiment: Anti-inflammatory activity against LPS/zVAD treated mouse BV-2 cells assessed as decrease in IL-1beta release at 100 nM in presence of PF-06260933 and crizotinib by ELISA; type: functional, cell-based
[26] = system: BV-2; experiment: Cytotoxicity against mouse BV-2 cells; type: toxicity, cell-based

SMILES | IC50 [6] | IC50 [7] | IC50 [8] | EC50 [9] | also measured
Nc1ccc(-c2cnc(N)c(-c3ccc(Cl)cc3)c2)cn1 |  |  |  |  | Activity [1]: Active; Activity Similar To Nec-1; Activity [2]: inactive; Activity [3]: inactive
CN(C(=O)c1cccn(Cc2cccc(F)c2)c1=O)c1ccccc1 |  |  |  |  | Inhibition activity call [4]: Active; Activity [5]: Active
COc1ccc(Nc2cnc(Nc3cc(C)cc(F)c3)c(C(N)=O)c2)cc1 | 300 nM | 1810 nM | 1550 nM | 140 nM | 
Cc1cc(C)c(C(N)=O)c(Nc2ccc(Cl)cc2)n1 |  |  |  |  | Inhibition activity call [4]: Active; Activity [5]: Active
Cc1cc(F)cc(Nc2ncc(Nc3ccccc3)cc2C(N)=O)c1 | 380 nM | 760 nM | 1270 nM | 370 nM | 
Cc1cc(F)cc(Nc2ncc(Nc3ccc4c(c3)OCO4)cc2C(N)=O)c1 | 660 nM | 2230 nM |  | 160 nM | 
CN1C(=O)C(Cc2c[nH]c3ccccc23)NC1=S (stereo unspecified) [NECROSTATIN] |  |  |  |  | Activity [10]: Active; Activity [11]: Active; Activity [12]: Active; Activity [13]: Active; Activity [3]: inactive; Activity [14]: Active; Activity [15]: Active; Activity [16]: Active; Activity [17]: Active; Activity [18]: Active; Activity [19]: Active; Activity [20]: inactive; Activity [21]: Active; Activity [22]: 100%; Activity [23]: 100%; Activity [24]: Active; Activity [25]: Active
O=C(NCCc1ccccc1)C1CCN(C(=O)c2ccccc2F)CC1 |  |  |  |  | Inhibition activity call [4]: Active; Activity [5]: Active
CCCc1ccc(Nc2cnc(Nc3cc(C)cc(F)c3)c(C(N)=O)c2)cc1 | 1480 nM | 12900 nM | 3310 nM | > 3000 nM | 
Cc1cc(F)cc(Nc2ncc(Nc3ccccc3C)cc2C(N)=O)c1 |  | 970 nM |  | > 3000 nM | 
C=Cc1ccc(Nc2cnc(Nc3cc(C)cc(F)c3)c(C(N)=O)c2)cc1 | 480 nM | 350 nM |  | 140 nM | 
Cc1cc(Nc2ncc(Cl)c(Nc3ccccc3S(=O)(=O)C(C)C)n2)c(OC(C)C)cc1C1CCNCC1 [CERITINIB] |  |  |  |  | Activity [26]: Toxic; Activity [5]: inactive
COc1ccc(Nc2cnc(Nc3cc(C)cc(F)c3)c(C(N)=O)c2)c(F)c1 | 960 nM | 3160 nM | 1460 nM | 1540 nM | 
COc1ccc(Nc2cnc(Nc3cc(C)cc(F)c3)c(C(N)=O)c2)c(C)c1 |  | 9260 nM |  | > 3000 nM | 
Cc1cc(F)cc(Nc2ncc(Nc3ccc(C(F)(F)F)cc3)cc2C(N)=O)c1 | 420 nM | 1420 nM | 3780 nM | 210 nM | 
Cc1cc(F)cc(Nc2ncc(Nc3ccc4c(c3)CCCC4)cc2C(N)=O)c1 | 690 nM | 2260 nM |  | 200 nM | 
Cc1cc(F)cc(Nc2ncc(Nc3ccc(Oc4ccccc4)cc3)cc2C(N)=O)c1 | 870 nM | 4290 nM | 3790 nM | 2660 nM | 
Cc1cc(F)cc(Nc2ncccc2C(N)=O)c1 | 240 nM | 660 nM | 610 nM | 480 nM | 
C[C@@H](Oc1cc(-c2cnn(C3CCNCC3)c2)cnc1N)c1c(Cl)ccc(F)c1Cl [CRIZOTINIB] |  |  |  |  | Activity [26]: Non-toxic
Cc1cc(F)cc(Nc2ncc(Nc3ccc(-c4ccco4)cc3)cc2C(N)=O)c1 | 360 nM | 650 nM | 1450 nM | 120 nM | 
Cc1cc(F)cc(Nc2ncc(Nc3ccc(C)c(C)c3)cc2C(N)=O)c1 | 1570 nM | 1380 nM | 1050 nM | > 3000 nM | 
O=C1c2cccc3cccc(c23)N1Cc1ccc(F)cc1 |  |  |  |  | Inhibition activity call [4]: Active; Activity [5]: Active
Cc1c(Cc2ccccc2)sc(NC(=O)c2ccccc2)c1C(N)=O |  |  |  |  | Inhibition activity call [4]: Active; Activity [5]: Active
Cc1cc(F)cc(Nc2ncc(Nc3ccc(C#N)cc3)cc2C(N)=O)c1 | 350 nM | 440 nM | 3020 nM | 240 nM | 
Nc1cc(-c2ccc(Br)cc2)nn1Cc1ccccc1 |  |  |  |  | Inhibition activity call [4]: Active; Activity [5]: Active
Cc1cc(F)cc(Nc2ncc(Nc3ccc(C(C)(C)C)cc3)cc2C(N)=O)c1 | 500 nM |  | 830 nM | 440 nM | 
Cc1cc(F)cc(Nc2ncc(Nc3cccc(C#N)c3)cc2C(N)=O)c1 | 1210 nM | 530 nM | 2240 nM | > 3000 nM | 
Cc1cc(C)cc(Nc2cnc(Nc3cc(C)cc(F)c3)c(C(N)=O)c2)c1 | 430 nM | 930 nM | 210 nM |  | 
Cc1cc(F)cc(Nc2ncc(Nc3ccccc3Cl)cc2C(N)=O)c1 | 1300 nM | 760 nM | 490 nM | > 3000 nM | 
Cc1cc(F)cc(Nc2ncc(Nc3ccc(F)cc3F)cc2C(N)=O)c1 | 290 nM | 1920 nM | 780 nM | 150 nM | 
